According to patent US20100234463A1, “Method for Identifying Modulators of Gamma Secretase or Notch” (priority 2005, published 2010):

Columns and labels:
Aβ40 = test: Quantification of Aβ40 in cell-conditioned media by ECL; type: cell-based, human; conditions: 24 hours
Procedure: (§1) Human embryonic kidney (HEK) 293 cells stably over-expressing β-amyloid precursor protein (βAPP695) and c-myc-tagged NotchΔE (M1727V) have been previously described (Beher, D. et al., J. Biol Chem. 276: 45394-45402, (2001)). Cells were routinely maintained in Dulbecco's modified Eagle's medium (DMEM) supplemented with 10% (v/v) fetal calf serum (FCS, Invitrogen™, Carlsbad, Calif.), 1 μg/ml puromycin (Sigma-Aldrich, St. Louis, Mo.) to maintain βAPP expression and 100 μg/ml zeocin (Life Technologies, Inc., Rockville, Md.) to select for NotchΔE expression. Cells were passaged on a weekly basis using 1:10 split ratio.
(§2) On the day of the assay, media was removed and cells washed with phosphate-buffered saline (PBS, Sigma-Aldrich, St. Louis, Mo.), followed by incubation with 1.5 ml Accutase (PAA Laboratories GmbH, Pasching, Austria) at 37° C. for 10 minutes to detach cells. DMEM supplemented with 10% (v/v) FCS was added and the cell suspension centrifuged for 5 minutes at 1120 prm. […] A further 9 ml DMEM supplemented with 0.4% (v/v) FCS was added and cells counted.
(§3) Cells were plated in poly-d-lysine coated 96-well plates (Becton Dickinson, Fullerton, Calif.) at 10,000 cells/well in DMEM supplemented with 0.4% (v/v) FCS (Invitrogen™, Carlsbad, Calif.). […] Cell conditioned media was removed for quantification of Aβ peptides and the cell monolayer fixed by incubating with 3.7% (v/v) formaldehyde (Sigma-Aldrich, St. Louis, Mo.) in PBS at room temperature for fifteen minutes.
Aβ peptides secreted into the media were quantified using an electrochemiluminescence (ECL) assay in a 96-well plate format (Sector HTS™ analyzer, Meso Scale Discovery® a division of Meso Scale Diagnostics™, LLC (MSD™), Gaithersburg, Md.). […] Plates were washed with PBS (three times, five minutes each) and media replaced with 150 μl Read buffer S (Meso Scale Discovery®) prior to detecting Aβ40 and Aβ42 using the Sector HTS™ Analyzer. […]
Mean values for vehicle control and compound C treated cells were calculated. […] Percent control values were calculated using the following formula: […]

Notch = test: NICD nuclear translocation high content screening assay (ArrayScan); type: cell-based, human
Procedure: as §1, §2, §3
Cells were washed with PBS (three times, five minutes each) and incubated with 0.1% Triton-X in PBS for 90 seconds at room temperature. […] After washing with PBS (three times, five minutes each), the plates were sealed and transferred to a Cellomics™ ArrayScan® 4.0 (Cellomics Inc, Pittsburgh, Pa.) for quantification of NICD translocation.
Automated image capture and quantification of NICD nuclear translocation was performed using a Cellomics™ ArrayScan® 4.0 and the Cytoplasm to Nucleus Translocation BioApplication software (Cellomics, Pittsburgh, Pa.). […]

γ-secretase = conditions: reported; cited from earlier work
Aβ42 [1] = test: Quantification of Aβ42 in cell-conditioned media by ECL; type: cell-based, human; conditions: 24 hours
Procedure: as §1
as §2, with “cells.” for “cells. DMEM supplemented with 10% (v/v) FCS was added and the cell suspension centrifuged for 5 minutes at 1120 prm.”
as §3, with “minutes. […]” for “minutes.”

Aβ42 [2] = conditions: cited from earlier work

| Structure (SMILES) | effect on Aβ40 levels (Aβ40; increasing concentrations) | inhibition of NICD nuclear translocation over time (Notch; 10 μM, up to twenty four hours) | potency for inhibition of Aβ40 versus Aβ42 peptides (γ-secretase) | concentrations at which Aβ40 peptide generation was inhibited (Aβ40) [µM] | IC50 (Aβ40; HEK293 βAPP695 NotchΔE cells) [µM] | IC50 (Aβ42 [1]; HEK293 βAPP695 NotchΔE cells) [µM] | effect on Aβ42 peptide levels (Aβ42 [1]; increasing concentrations) | concentrations with no effect on NICD nuclear translocation (Notch; 24 hours) | IC50 (Notch; NICD nuclear translocation, 24 hours) [µM] | reported effect on Aβ42 (Aβ42 [2]) |
| --- | --- | --- | --- | --- | --- | --- | --- | --- | --- | --- |
| CC(C)C[C@H](NC(=O)[C@H](Cc1ccccc1)C[C@@H](O)[C@H](Cc1ccccc1)NC(=O)OC(C)(C)C)C(=O)N[C@@H](Cc1ccccc1)C(N)=O [C] | declined | Time-dependant inhibition | equivalent potency | – | – | – | – | – | – | – |
| C[C@@H](C(=O)O)c1ccc(-c2ccccc2)c(F)c1 [Compound F] | – | – | – | ≥ 30 | > 1000 | 9.24 | selectively reduced | up to 1000 μM | > 1000 | preferentially inhibit Aβ42 |
